Measured values as given in patent publication US9730914B2, “3,5-diaminopyrazole kinase inhibitors” (Axikin Pharmaceuticals, Inc., priority 2014, dated 2017).

What was measured:
[1] = molecular target: T1, JAK2 (Homo sapiens, UniProt O60674); assay: Kinase competition binding assay (Kd, qPCR readout), JAK2; settings: for Kd: Kd class, JAK2, read-out: JAK2 Activity Level; for RCK:JAK2 selectivity ratio: ratio Kd (JAK2): Kd(RCK)
T1 construct: made in house; host or cells: E. coli BL21-derived host (T7 phage) or HEK-293
T1 sequence (O60674 840-1132 limits assumed): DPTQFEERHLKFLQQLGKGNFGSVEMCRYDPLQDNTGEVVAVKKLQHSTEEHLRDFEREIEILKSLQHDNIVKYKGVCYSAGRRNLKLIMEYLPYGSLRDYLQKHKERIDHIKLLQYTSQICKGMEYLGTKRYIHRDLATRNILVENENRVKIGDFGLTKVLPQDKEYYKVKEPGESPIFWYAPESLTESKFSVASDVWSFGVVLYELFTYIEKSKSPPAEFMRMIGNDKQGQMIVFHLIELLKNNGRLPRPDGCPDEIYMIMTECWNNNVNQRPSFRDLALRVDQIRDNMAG
Procedure, shortened: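 Competition binding: DNA-tagged kinase (T7 phage or HEK-293-expressed), immobilized biotinylated ligand beads and compound in SeaBlock/PBS/Tween/DTT buffer, 1 hour at room temperature; bound kinase eluted and quantified by qPCR. Kd from 11-point 3-fold dilution, top 30,000 nM typically, final DMSO 1%.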

[2] = molecular target: T2, kinase domain protein of RC kinase (RCK) (Homo sapiens, UniProt Q56UN5); assay: Kinase competition binding assay (Kd, qPCR readout), RC kinase; settings: Kd class, read-out: RCK Activity Level
T2 construct: made in house; host or cells: E. coli BL21-derived host (T7 phage) or HEK-293
T2 sequence (Q56UN5 1061-1324 limits assumed): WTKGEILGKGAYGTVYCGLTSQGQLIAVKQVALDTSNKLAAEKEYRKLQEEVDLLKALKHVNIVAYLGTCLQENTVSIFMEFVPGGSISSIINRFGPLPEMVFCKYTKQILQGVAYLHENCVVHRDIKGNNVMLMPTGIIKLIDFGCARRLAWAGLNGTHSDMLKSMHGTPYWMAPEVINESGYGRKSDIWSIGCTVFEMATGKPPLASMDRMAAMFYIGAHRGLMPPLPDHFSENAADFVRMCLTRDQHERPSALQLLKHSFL
Procedure, shortened: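 Competition binding: DNA-tagged kinase (T7 phage or HEK-293-expressed) plus immobilized biotinylated ligand beads and compound, 1 h at room temperature, 1% DMSO. Bead-bound kinase eluted and quantified by qPCR. Kd from 11-point 3-fold dilution, top 30,000 nM, retested lower if below 0.5 nM.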

[3] = molecular target: T3, JAK3 (Homo sapiens, UniProt P52333); assay: Kinase competition binding assay (Kd, qPCR readout), JAK3; settings: for Kd: Kd class, JAK3, read-out: JAK3 Activity Level; for RCK:JAK3 selectivity ratio: ratio Kd (JAK3): Kd (RCK)
T3 construct: made in house; host or cells: E. coli BL21-derived host (T7 phage) or HEK-293
T3 sequence (P52333 811-1124 limits assumed): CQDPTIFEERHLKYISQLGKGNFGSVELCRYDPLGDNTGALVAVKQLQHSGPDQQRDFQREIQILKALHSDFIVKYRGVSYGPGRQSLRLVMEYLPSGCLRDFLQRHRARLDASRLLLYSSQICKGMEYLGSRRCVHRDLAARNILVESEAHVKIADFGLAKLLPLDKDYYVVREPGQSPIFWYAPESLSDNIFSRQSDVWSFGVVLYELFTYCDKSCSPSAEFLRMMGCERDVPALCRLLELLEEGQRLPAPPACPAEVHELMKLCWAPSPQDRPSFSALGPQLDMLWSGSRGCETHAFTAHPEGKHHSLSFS
Procedure, shortened: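 Kd values were derived from 11-point, 3-fold compound series at 1% DMSO, usually topping at 30,000 nM, with retesting from a lower top when under 0.5 nM. It competed with bead-immobilized ligand for 1 h at room temperature, and the captured kinase was measured by qPCR after elution.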

| Kd [1] | RCK:JAK2 selectivity ratio [1] | Kd [2] | Kd [3] | SMILES | RCK:JAK3 selectivity ratio [3] |
| --- | --- | --- | --- | --- | --- |
| < 50 nM | D (D represents Kd(JAK2): Kd (RCK)<1) | < 50 nM | < 50 nM | NC(=O)c1c(Nc2ccc(N3CCOCC3)c(Cl)c2)n[nH]c1NCc1ccc(O)cc1 [reference compound] | C (C represents 1<Kd (JAK3): Kd (RCK)<10) |
| 50 to 100 nM | D (D represents Kd(JAK2): Kd (RCK)<1) | 100 to 1000 nM | 100 to 1000 nM | NC(=O)c1c(Nc2ccc(N)cc2)n[nH]c1NCc1ccc(O)cc1 [reference compound] | D (D represents Kd (JAK3): Kd(RCK)<1) |
